Drawing on ChEMBL document CHEMBL1157539, “Thousands of chemical starting points for antimalarial lead identification” (Nature, 2010), this text covers XC50 for 82 molecules.

Each structure is given as a SMILES string.

The experiment deals with Plasmodium falciparum. The experiment in a line: GSK_TCMDC: Inhibition of Plasmodium falciparum 3D7 in whole erythrocytes, using parasite LDH activity as an index of growth. It is filed as functional, organism-based. As to conditions: Plasmodium falciparum, 3D7.
As for `Cc1cc(N/N=C/c2ccccc2[N+](=O)[O-])c2cccc(C)c2n1`, the XC50 amounted to 548 nM.
As for `CCC(Cc1cnc2nc(N)nc(N)c2n1)c1ccc(C(=O)O)cc1` (configuration not stated), the figure is 250 nM; as for `CCN(CC)CCN(Cc1ccc(-c2ccc(C#N)cc2)cc1)C(=O)Cn1c(CCc2cccc(F)c2F)nc(=O)c2ccccc21`, 5.97 nM.
As for `CC(C)[C@H](NC(=O)c1ccc(O)c(-c2ccc(Cl)c(Cl)c2)c1)C(=O)NCCN(C)C`, the figure is 1050 nM.
With `Cc1c(CN2CCCCC2)cccc1OCCCNc1nc(NCCc2ccc(O)cc2)nc(N2CCNCC2)n1`, the XC50 is 223 nM.
Consider `CCN(CCN(C)C)Cc1ccc(-c2ccc(NS(=O)(=O)c3cccc(Cl)c3)cc2)cc1`, for which the XC50 stood at 523 nM.
Regarding `COc1cccc(O)c1CN1CCC2(CCCN(Cc3ccc(F)cc3)C2)C1` (configuration not stated), the XC50 came to 865 nM.
Under `Cc1[nH]c(C)c(-c2ccc(OCc3ccc(F)cc3)cc2)c(=O)c1Br` stands 77.2 nM.
Under `CCCCC(=O)Nc1ccc(Nc2nc(C)cc(N3CCCC3)n2)cc1` stands 1060 nM; under `Nc1nc(N)c2c(ccc3nn(Cc4cccnc4)cc32)n1`, 355 nM; under `CC(=O)NC1=NC(C)(C)N(OCc2ccc(Cl)c(Cl)c2)C(NC(C)=O)=N1`, 3.2 nM.
As for `Cc1cc2nc(N=C3NC4(c5ccccn5)NC(=Nc5nc6cc(C)c(C)cc6[nH]5)NC4(c4ccccn4)N3)[nH]c2cc1C` (configuration not stated), the figure is 683 nM; as for `COc1cc(NC(=O)/C=C/c2ccccc2OC(F)(F)F)cc(OCCN2CCC(O)(c3ccccc3)CC2)c1`, 285 nM.
`COc1cc(NC(=O)c2cc([N+](=O)[O-])ccc2NC(=O)CNC2CCCC(C)C2C)cc(OC)c1` (configuration not stated) had an XC50 of 1040 nM.
Under `O=C(NCCCCCN1CCC(c2c[nH]c3ccccc23)CC1)Nc1ccc(I)c(Cl)c1` stands 969 nM; under `Cc1n[nH]c2cc(Nc3ccnc(Nc4ccc(CN5CCOCC5)cc4)n3)ccc12`, 950 nM.
Under `CN1CCN(CCCN(Cc2cccc(-c3cccc(CNCc4ccc5c(c4)OCO5)c3)c2)C(=O)CCC2CCCC2)CC1` stands 952 nM; under `O=C(Nc1ccc(Cl)c(C(F)(F)F)c1)c1ccc(Cl)c([N+](=O)[O-])c1`, 1120 nM; under `CC(C)c1ccc(NC(=O)c2ccc(C(=O)NC3CCN(CC4CCCCC4)C3)cc2)cc1` (configuration not stated), 792 nM.
Under `CCOC(=O)[C@H](Cc1cc([N+](=O)[O-])c(Oc2ccc(OC)c(Cc3ccc(OC)c(C(C)C)c3)c2)c([N+](=O)[O-])c1)NC(=O)C(F)(F)F` stands 984 nM.
For `CN(C)CCCOc1cccc(NC(=O)Nc2ccc(Cl)c(Cl)c2)c1`, the XC50 was determined as 956 nM.
Under `Cc1cccc2nc(-c3ccc(-c4ccc(CNCC5CCCO5)cc4)cc3)[nH]c12` (configuration not stated) stands 678 nM.
As for `CCCCNC(=O)[C@H](CC1CCCCC1)NC(=O)c1ccc(O)c(-c2ccc(OC)cc2)c1`, the figure is 920 nM; as for `CNCCNCc1cccc(-c2ccc(-c3nc4ccccc4[nH]3)cc2)c1`, 743 nM.
For the molecule `O=C(NCCCCN1CCN(c2cccc(Cl)c2Cl)CC1)c1ccc2c(c1)CCN(C1CCC1)CC2`, the XC50 came to 747 nM.
As for `CCOC(=O)c1ccc(NC(=O)Nc2ccc(-c3ccc(-c4nc5cc(C(F)(F)F)ccc5[nH]4)cc3)cc2)cc1`, the figure is 273 nM; as for `Cc1cc(N)c2cc(NC(=O)CCC(=O)Nc3ccc4nc(C)cc(N)c4c3)ccc2n1`, 954 nM; as for `O=C(/C=C/c1ccc(Cl)c(Cl)c1)NC1CCC(N2CCC(c3c[nH]c4ccc(O)cc34)CC2)CC1` (configuration not stated), 921 nM.
Under `COc1ccc(C(=O)NC(c2ccc(Cl)cc2Cl)c2cc(Cl)c3cccnc3c2O)cc1` (configuration not stated) stands 499 nM; under `CCCCN1CCN(CC(O)CNC(=O)Nc2ccc(Cl)cc2)CC1` (configuration not stated), 68.5 nM; under `CC(CN(C)C)C(=O)Nc1cccc(-c2ccc(-c3nc4ccccc4[nH]3)s2)c1` (configuration not stated), 743 nM.
Under `CC(=O)Nc1cccc(CNCc2ccc(-c3cnc(N4CCCC(c5ccccc5)C4)nc3)cc2)c1` (configuration not stated) stands 1190 nM; under `O=C(c1cccc(-c2cccc(-c3nc4cc(C(F)(F)F)ccc4[nH]3)c2)c1)N1CCCCC1CN1CCC(O)C1` (configuration not stated), 279 nM; under `Oc1ccc2c(c1NCC1CCCCC1)CCCC2`, 514 nM.
On to `COc1ccc2nccc(C(=O)NC3CCC(CCN4CCc5cc(C#N)ccc5C4)CC3)c2c1` (configuration not stated), for which the XC50 worked out at 1160 nM.
In turn, `Cc1cc(OCCCN2CCC(NS(=O)(=O)c3cc(Br)c(Cl)s3)CC2)c2ccccc2n1` gave an XC50 of 851 nM.
Under `Cc1cnc(Nc2cccc(CCN3CCOCC3)c2)nc1NC(C)C` stands 738 nM; under `COc1ccc2ncc(F)c(CCN3CCC(CNCc4cccc5c4OCO5)CC3)c2n1`, 934 nM; under `O=C(Nc1ccc(Cl)cc1)N(CC1CC2CCC(C1)N2Cc1ccc(C(F)(F)F)cc1)c1ccc(N2CCOCC2)c(F)c1` (configuration not stated), 1070 nM.
`Clc1ccc(Cn2nc(Br)nc2Br)c(Cl)c1` returned an XC50 of 439 nM.
Molecule `CCc1ccc(CN2CCC(CNC(=O)c3cc(-c4cccc(Cl)c4)cs3)C2)cc1` (configuration not stated) gave an XC50 of 1110 nM.
`Fc1cccc(COc2ccc(Nc3ncnc4sc(C#C[C@H]5CCCN5)cc34)cc2F)c1`: the XC50 was 871 nM.
Under `CCC[C@@H]([C@@H](CC(C)C)C(=O)N[C@@H](CCCCNC(=O)OCc1ccccc1)C(=O)Nc1ncccn1)N(O)C=O` stands 59.1 nM; under `Cc1cccc2nc(-c3ccc(-c4ccc(NC(=O)C(C)CN(C)C)cc4)s3)[nH]c12` (configuration not stated), 409 nM; under `COc1cc2nc(NC3CCN(Cc4ccccc4)CC3)nc(N)c2cc1OC`, 166 nM.
As for `CS(=O)(=O)Nc1cccc(-c2cnc3[nH]cc(-c4ccc(C(=O)O)cc4)c3c2)c1`, the figure is 857 nM; as for `CN1CCC(c2csc3ccc(NC(=O)Nc4ccc(-c5ccncc5)c5ccccc45)cc23)CC1`, 1020 nM; as for `Cc1cc(NCCCCCCCCNc2cc(C)nc3ccccc23)c2ccccc2n1`, 985 nM.
As for `Cc1ccc(NC(=O)c2cc(S(=O)(=O)NC(C)(C)C)ccc2C)nc1`, the figure is 756 nM; as for `C=C(C)Cn1cc(C2CCN(CCN3CCC(CNC(=O)c4ccc(-c5ccc(C#N)cc5)cc4)CC3)CC2)c2ccccc21`, 433 nM; as for `O=C(Nc1ccc(F)cc1)NC1CCN(CCCCCNC(=O)C2CC2c2ccc(Cl)c(Cl)c2)CC1` (configuration not stated), 987 nM.
With `O=C(Cn1c(SCc2cccc(F)c2F)cc(=O)c2ccccc21)N(CCn1ccnc1)Cc1ccc(-c2ccc(C(F)(F)F)cc2)cc1`, the XC50 worked out at 770 nM.
Under `CC(=O)Nc1ccc(S(=O)(=O)N(Cc2cccc(Oc3ccccc3)c2)C2CCN(C/C=C(\C)CCC=C(C)C)CC2)cc1` stands 192 nM.
The molecule `O=C(NCC1CCN(Cc2ccc(F)cc2)C1)c1cc(-c2cccc(C(F)(F)F)c2)cs1` (configuration not stated) gave an XC50 of 960 nM.
Under `COc1ccc(OC)c(NC(=O)CSc2nc(-c3ccccc3Cl)ns2)c1` stands 835 nM; under `CCN(CC)CCCCNc1cc(-c2[nH]c(C(C)(C)C)nc2-c2ccc3cc(OC)ccc3c2)ccn1`, 531 nM.
As for `O=C(NCCCCN1CCC(C(c2ccccc2)c2ccccc2)CC1)c1ccc(NC(=O)c2ccc(Cl)cc2)cc1`, the figure is 769 nM.
Under `CC(C)CCCC(C)(C)NC[C@@H](O)[C@H](Cc1ccccc1)NC(=O)c1cc(NC(C)C)cc(N2CCCCS2(=O)=O)c1F` stands 219 nM.
On to `CC(C)(C)c1ccc(-c2cc(C(=O)N[C@@H](CO)C(=O)O)on2)cc1.CC(C)(C)c1ccc(-c2nocc2C(=O)N[C@@H](CO)C(=O)O)cc1`, for which the XC50 amounted to 966 nM.
As for `COCCOc1cc(C)c(C2CCN(CCCCNC(=O)c3ccc(NC(=O)c4ccc(Cl)cc4)cc3)CC2)cc1C`, the figure is 951 nM; as for `COc1ccc(Nc2nc(N3CCCC3)c3ccccc3n2)cc1`, 750 nM; as for `CCOC(=O)c1c(CN2CCN(C)CC2)n(Cc2ccccc2)c2cc(Br)c(O)cc12`, 595 nM.
Molecule `Cc1cccc2nc(-c3cccc(-c4cccc(C(=O)N5CCCCC5CN5CCC(O)C5)c4)c3)[nH]c12` (configuration not stated) had an XC50 of 463 nM.
`O=C(NCCCCN1CCC(c2ccc3c(c2OCCCO)CCCC3)CC1)c1ccc(-c2ccc(C(F)(F)F)cc2)cc1` displayed an XC50 of 718 nM.
As for `CCCCCCOc1ccc(C(=O)N(Cc2ccccc2)c2c(-c3ccccc3)nc3cc(C)ccn23)cc1`, the figure is 774 nM.
As for `O=C(CSc1nc2ccccc2c(=O)n1C1CC1)Nc1cc(C(F)(F)F)ccc1Cl`, the figure is 108 nM; as for `CCCCCCOc1ccc(C(=O)N[C@H]2CCN(CCCCCNC(=O)/C=C/c3ccc(Cl)c(Cl)c3)C2)cc1`, 695 nM.
As for `COC(=O)c1cccc(CNCc2ccc(-c3ccc(-c4nc5cc(F)ccc5[nH]4)s3)cc2)c1`, the figure is 588 nM.
`Fc1ccc2[nH]cc(CCN3CCC(CNCc4ccccc4)CC3)c2c1` gave an XC50 of 33 nM.
As for `COc1cc(C(=O)NC2CCN(Cc3ccccc3)CC2)ccc1-c1nc2cc(Cl)c(C)cc2[nH]1`, the figure is 304 nM; as for `CCOC(=O)C1=C(C)NC(C)=C(C(=O)OCC)C1(C(=O)OCc1ccccc1)c1cccc(C(F)(F)F)c1`, 1230 nM.
In turn, `Cc1onc(-c2ccccc2)c1-c1nc(NCCC(c2ccccc2)c2ccccc2)no1` yielded an XC50 of 835 nM.
Under `CCc1cc(COc2ccc(CNCCC(C)C)cc2I)c(OCc2ccccc2)c(COc2ccc(CNCCC(C)C)cc2I)c1` stands 1110 nM; under `O=C(NCCCCN1CCN(c2cccc3c2CCCC3)CC1)c1ccc(NC(=O)c2ccc(Cl)cc2)cc1`, 447 nM.
As for `Clc1ccc(-c2csc3ncnc(Cl)c23)cc1`, the figure is 460 nM; as for `CC1CCC(NC(=O)c2nn(-c3ccc(Cl)cc3)c(=O)c3ccccc23)CC1` (configuration not stated), 1080 nM.
Under `COc1cc(Nc2nccc(N3CCC(NC(=O)C(C)c4ccc(Cl)cc4)C3)n2)cc(OC)c1OC` (configuration not stated) stands 757 nM; under `OCCNc1nc(Nc2ccc(Cl)cc2)nc2ccccc12`, 708 nM; under `O=[N+]([O-])c1cnc(Nc2ccccc2O)nc1Nc1ccccc1O`, 897 nM.
Take `CS(=O)(=O)c1ccc2c(c1)CCN(CCC1CCC(NC(=O)c3cc4cccc(Br)c4[nH]3)CC1)CC2` (configuration not stated): the XC50 was determined as 1040 nM.
As for `COc1ccc(C(=O)CCC(=O)N(Cc2ccc(-c3ccc(CNCCc4ccccc4)cn3)cc2)C(C)CN(C)C)cc1F` (configuration not stated), the figure is 747 nM; as for `O=C(/C=C/c1ccc(Cl)c(Cl)c1)NCCCCCN1CCC(NC(=S)Nc2ccc(Cl)cc2)CC1`, 443 nM.
